# Experimental data: PubChem BioAssay (NCI)
# Values joined by “and” are separate entries in the source; they are usually repeats but may differ in a detail not shown here. Equal values may be shown once.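 Five compound concentrations were applied to cells in 96-well plates for 48 hours; endpoints were derived by simple linear interpolation of the resulting dose-response curve. At the GI50, growth is halved. TGI denotes the concentration required for complete inhibition of growth.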
# What was measured:
# Test in all cases: inhibition of tumour cell growth, NCI panel, 48 h
# SK-MEL-28 melanoma = system: SK-MEL-28 melanoma
# OVCAR-8 ovarian = system: OVCAR-8 ovarian
# OVCAR-3 ovarian = system: OVCAR-3 ovarian
# EKVX NSCLC = system: EKVX NSCLC
# BT-549 breast = system: BT-549 breast
# CCRF-CEM leukemia = system: CCRF-CEM leukemia
# DU-145 prostate = system: DU-145 prostate
# NCI-H23 lung = system: NCI-H23 lung
# T-47D breast = system: T-47D breast
# U251 CNS = system: U251 CNS
SMILES,GI50 (SK-MEL-28 melanoma),TGI (SK-MEL-28 melanoma),GI50 (OVCAR-8 ovarian),TGI (OVCAR-8 ovarian),GI50 (OVCAR-3 ovarian),TGI (OVCAR-3 ovarian),GI50 (EKVX NSCLC),TGI (EKVX NSCLC),GI50 (BT-549 breast),TGI (BT-549 breast),GI50 (CCRF-CEM leukemia),TGI (CCRF-CEM leukemia),GI50 (DU-145 prostate),TGI (DU-145 prostate),GI50 (NCI-H23 lung),TGI (NCI-H23 lung),GI50 (T-47D breast),TGI (T-47D breast),GI50 (U251 CNS),TGI (U251 CNS)
Cc1ccc(Cl)cc1Nc1nc(C(F)(F)F)ccc1C(=O)N1CCN(c2cccc(Cl)c2)CC1,> 100 µM,> 100 µM,> 100 µM,> 100 µM,8.27 µM,> 100 µM,86.4 µM,> 100 µM,> 100 µM,> 100 µM,> 100 µM,> 100 µM,> 100 µM,> 100 µM,> 100 µM,> 100 µM,37.6 µM,> 100 µM,> 100 µM,> 100 µM
COc1ccc2[nH]cc(-c3nc(-c4c[nH]c5ncccc45)cs3)c2c1,6.43 µM,> 100 µM,4.7 µM,> 100 µM,6.04 µM,> 100 µM,5.79 µM,> 100 µM,5.35 µM,> 100 µM,4.07 µM,> 100 µM,5.69 µM,> 100 µM,4.38 µM,> 100 µM,6.47 µM,> 100 µM,3.83 µM,> 100 µM
COc1cc(CNCCCN2C(=O)c3ccc4c5c(ccc(c35)C2=O)C(=O)N(CCCNCc2cc(OC)c(OC)c(OC)c2)C4=O)cc(OC)c1OC,0.841 µM,1.57 µM,0.272 µM,0.959 µM,0.143 µM,0.382 µM,0.543 µM,1.35 µM,0.852 µM,1.77 µM,0.3 µM,4.07 µM,0.436 µM,1.11 µM,0.35 µM,1.22 µM,0.38 µM,1.12 µM,0.257 µM,0.93 µM
Ic1ccc(-n2nnnc2-c2cnoc2-c2ccccc2)cc1,> 62.2 µM,> 100 µM,> 50.4 µM,> 77 µM,46.4 µM,> 100 µM,7.49 µM,> 21.7 µM,–,9.49 µM,1.21 µM,> 48.8 µM,5.99 µM,> 100 µM,35.4 µM,> 81 µM,48.8 µM,> 100 µM,44.8 µM,> 100 µM
C1CSCCSCCS1,–,> 100 µM,–,> 100 µM,–,> 100 µM,–,> 100 µM,–,> 100 µM,–,> 100 µM,–,> 100 µM,–,> 100 µM,–,> 100 µM,–,> 100 µM
Cc1[nH]c2ccccc2c1-c1cc(-c2cc(-c3c(C)[nH]c4ccccc34)on2)no1,–,> 100 µM,–,> 100 µM,–,> 100 µM,–,> 100 µM,–,> 100 µM,–,> 100 µM,–,> 100 µM,–,> 100 µM,–,> 100 µM,–,> 100 µM
O=c1cc2oc3cc(O)c(O)cc3c(-c3ccccc3O)c-2cc1O,37.2 µM,> 100 µM,16 µM,> 100 µM,9.41 µM,> 100 µM,29.2 µM,> 100 µM,14.4 µM,40.3 µM,7.29 µM,> 100 µM,22.8 µM,> 100 µM,3.88 µM,39.1 µM,9.51 µM,> 100 µM,4.6 µM,> 100 µM
COc1cccc2c1C(=O)c1c(O)c3c(c(O)c1C2=O)CC(O)(/C(C)=N/NC(=O)CCC(=O)N/N=C(\C)C1(O)Cc2c(O)c4c(c(O)c2C(OC2CC(N)C(O)C(C)O2)C1)C(=O)c1c(OC)cccc1C4=O)CC3OC1CC(N)C(O)C(C)O1 (stereo unspecified),0.371 µM,1.35 µM,0.306 µM,> 50 µM,0.259 µM,2.66 µM,1.12 µM,22.1 µM,0.671 µM,2.27 µM,0.113 µM,7.17 µM,0.302 µM,2.97 µM,0.186 µM,1.43 µM,0.172 µM,1.68 µM,–,–
NS(=O)(=O)c1ccc(N(/C=C/C(=O)C(F)(F)F)CC(=O)c2ccc(Cl)cc2)cc1,> 100 µM,> 100 µM,43.4 µM,> 100 µM,31.8 µM,> 100 µM,54.2 µM,> 100 µM,44.5 µM,> 100 µM,20.4 µM,44.5 µM,93.3 µM,> 100 µM,37.5 µM,> 100 µM,63.6 µM,> 100 µM,33 µM,> 100 µM
Cc1cn2c(/C=C3\C(=O)Nc4ccc(O)cc43)c(-c3ccc(Cl)cc3)nc2s1,12.2 µM,28.1 µM,18.4 µM,> 100 µM,16.9 µM,38.3 µM,14.9 µM,60.6 µM,17.3 µM,41.5 µM,29.4 µM,> 100 µM,10.3 µM,25.2 µM,15.8 µM,35.8 µM,8.96 µM,30.2 µM,14.3 µM,28.9 µM
COc1ccncc1C#Cc1cncc(C(=O)Nc2ccc(CN3CCN(C)CC3)c(C(F)(F)F)c2)c1,13.3 µM,> 100 µM,27.1 µM,> 100 µM,21.6 µM,89.7 µM,24.7 µM,> 100 µM,21.1 µM,> 100 µM,28.4 µM,> 100 µM,25.7 µM,> 100 µM,16.3 µM,> 100 µM,89.1 µM,> 100 µM,35.6 µM,> 100 µM
CC(=O)c1cc2c(o1)C(=O)c1ccccc1C2=O,0.222 µM and 0.292 µM,0.437 µM and 0.689 µM,0.411 µM and 0.378 µM,1.32 µM and 1.53 µM,0.218 µM and 0.225 µM,0.507 µM and 0.529 µM,1.19 µM and 1.55 µM,2.96 µM and 3.41 µM,0.164 µM and 0.161 µM,0.312 µM and 0.304 µM,0.403 µM and 1.02 µM,> 100 µM,0.174 µM and 0.186 µM,0.32 µM and 0.331 µM,0.19 µM and 0.153 µM,0.535 µM and 0.458 µM,1.33 µM and 1.6 µM,3.43 µM and 4.06 µM,0.197 µM and 0.256 µM,0.378 µM and 0.682 µM
Nc1nccc2c1ccn2-c1ccc(NC(=O)c2ccc(N3CCOCC3)c(C(F)(F)F)c2)cc1,1.17 µM,14.1 µM,3.47 µM,19.6 µM,1.38 µM,15.7 µM,1.69 µM,70.2 µM,1.03 µM,24.7 µM,0.452 µM,> 100 µM,2.66 µM,20.5 µM,0.94 µM,17.3 µM,2.19 µM,19.2 µM,0.341 µM,5.19 µM
CC(CC(=O)O)C(C(=O)O)C(=O)O (stereo unspecified),–,> 100 µM,–,> 100 µM,–,> 100 µM,–,> 100 µM,–,> 100 µM,–,> 100 µM,–,> 100 µM,–,> 100 µM,–,> 100 µM,–,> 100 µM
CCCn1c(N)c(C(=O)N/N=C(/C)c2cc3cccc(OC)c3o2)sc1=S,49.7 µM,> 100 µM,13.8 µM,> 100 µM,30.1 µM,> 100 µM,32.6 µM,> 100 µM,77.5 µM,> 100 µM,30.7 µM,> 100 µM,26.4 µM,> 100 µM,41.1 µM,> 100 µM,> 100 µM,> 100 µM,18.3 µM,55.5 µM
Nc1nc(N)c(N=Nc2ccc([As](=O)(O)O)cc2)c(=O)[nH]1,–,> 100 µM,–,> 100 µM,–,> 100 µM,–,> 100 µM,–,> 100 µM,–,> 100 µM,–,> 100 µM,–,> 100 µM,–,> 100 µM,–,> 100 µM
C=CCc1cccc(/C=N/NC(=O)CN2CCN(Cc3ccccc3)CC2)c1O,2.43 µM,15.5 µM,2.08 µM,17.6 µM,0.808 µM,6.32 µM,2.49 µM,12.8 µM,2.84 µM,15.3 µM,0.656 µM,7.78 µM,1.79 µM,13.4 µM,3.05 µM,16.5 µM,2.32 µM,14.9 µM,2.13 µM,14.9 µM
COc1cc(C2c3cc4c(cc3C(O)C(CO)C2CO)OCO4)cc(OC)c1OC (stereo unspecified),1.6 µM,> 100 µM,2.76 µM,> 100 µM,0.372 µM,1.94 µM,1.27 µM,> 71 µM,1.92 µM,> 54.9 µM,0.787 µM,> 100 µM,0.965 µM,15.4 µM,4.21 µM,> 100 µM,–,> 100 µM,0.587 µM,> 100 µM
O=C(c1ccc(Cl)cc1)c1cnc(Nc2ccccc2Cl)s1,–,23.4 µM,–,> 71.1 µM,–,40.9 µM,–,50.5 µM,–,51.2 µM,–,> 100 µM,–,48.7 µM,–,53.7 µM,–,47.9 µM,–,> 80.9 µM
O=C(CC(O)(C(F)(F)F)C(F)(F)F)c1cc(CC(=O)C(O)(C(F)(F)F)C(F)(F)F)cc(CC(=O)C(O)(C(F)(F)F)C(F)(F)F)c1,–,> 5.88 µM,–,6.91 µM,–,3.52 µM,–,> 9.06 µM,–,4.93 µM,–,> 10 µM,–,> 10 µM,–,4.06 µM,–,4.26 µM,–,6.4 µM
